Activity calls are given as the source filed them. No rule for the calls is given here.
test system: not listed separately; experiment: Antioxidant activity assessed as metal chelating activity by measuring inhibition of ferrozine-Fe2+ complex formation at 25 to 100 ug/ml; assay type: functional; settings: not given

In the case of `Cc1ccc(C2=CC(c3c(-c4ccccc4)[nH]c4ccccc34)c3c(N)nc(=S)[nH]c3O2)cc1` (stereo not given), the Activity is reported as “Active”.
For `Nc1nc(=O)[nH]c2c1C(c1c(-c3ccccc3)[nH]c3ccccc13)C=C(c1ccccc1)O2` (stereo not given), the Activity was “Active”.

test system: Aspergillus flavus; experiment: Antimicrobial activity against Aspergillus flavus MTCC 1973 at 500 ug/ml after 72 hrs by cup plate method; assay type: functional; settings: MTCC 1973, 72 h, read-out: IZ

Going from `Cc1ccc(C2=CC(c3c(-c4ccccc4)[nH]c4ccccc34)c3c(N)nc(=S)[nH]c3O2)cc1` (stereo not given) to `Nc1nc(=O)[nH]c2c1C(c1c(-c3ccccc3)[nH]c3ccccc13)C=C(c1ccccc1)O2` (stereo not given), the zone of inhibition at 500 µg/mL rises from 3 mm to 10 mm.

test system: Aspergillus flavus; experiment: Antimicrobial activity against Aspergillus flavus MTCC 1973 at 750 ug/ml after 72 hrs by cup plate method; assay type: functional; settings: MTCC 1973, 72 h, read-out: IZ

Going from `Cc1ccc(C2=CC(c3c(-c4ccccc4)[nH]c4ccccc34)c3c(N)nc(=S)[nH]c3O2)cc1` (stereo not given) to `Nc1nc(=O)[nH]c2c1C(c1c(-c3ccccc3)[nH]c3ccccc13)C=C(c1ccccc1)O2` (stereo not given), the zone of inhibition at 750 µg/mL rises from 3 mm to 9 mm.

test system: Aspergillus flavus; experiment: Antimicrobial activity against Aspergillus flavus MTCC 1973 at 1000 ug/ml after 72 hrs by cup plate method; assay type: functional; settings: MTCC 1973, 72 h, read-out: IZ

Going from `Cc1ccc(C2=CC(c3c(-c4ccccc4)[nH]c4ccccc34)c3c(N)nc(=S)[nH]c3O2)cc1` (stereo not given) to `Nc1nc(=O)[nH]c2c1C(c1c(-c3ccccc3)[nH]c3ccccc13)C=C(c1ccccc1)O2` (stereo not given), the zone of inhibition at 1000 µg/mL rises from 3 mm to 9 mm.

test system: Aspergillus terreus; experiment: Antimicrobial activity against Aspergillus terreus MTCC 1782 at 500 ug/ml after 72 hrs by cup plate method; assay type: functional; settings: MTCC 1782, 72 h, read-out: IZ

`Cc1ccc(C2=CC(c3c(-c4ccccc4)[nH]c4ccccc34)c3c(N)nc(=S)[nH]c3O2)cc1` (stereo not given) and `Nc1nc(=O)[nH]c2c1C(c1c(-c3ccccc3)[nH]c3ccccc13)C=C(c1ccccc1)O2` (stereo not given) are the same in zone of inhibition at 500 µg/mL: 6 mm for the first, 6 mm for the second.

test system: Aspergillus terreus; experiment: Antimicrobial activity against Aspergillus terreus MTCC 1782 at 750 ug/ml after 72 hrs by cup plate method; assay type: functional; settings: MTCC 1782, 72 h, read-out: IZ

`Cc1ccc(C2=CC(c3c(-c4ccccc4)[nH]c4ccccc34)c3c(N)nc(=S)[nH]c3O2)cc1` (stereo not given) and `Nc1nc(=O)[nH]c2c1C(c1c(-c3ccccc3)[nH]c3ccccc13)C=C(c1ccccc1)O2` (stereo not given) are the same in zone of inhibition at 750 µg/mL: 4 mm for the first, 4 mm for the second.

test system: Aspergillus terreus; experiment: Antimicrobial activity against Aspergillus terreus MTCC 1782 at 1000 ug/ml after 72 hrs by cup plate method; assay type: functional; settings: MTCC 1782, 72 h, read-out: IZ

First: Cc1ccc(C2=CC(c3c(-c4ccccc4)[nH]c4ccccc34)c3c(N)nc(=S)[nH]c3O2)cc1 (stereo not given)
Second: Nc1nc(=O)[nH]c2c1C(c1c(-c3ccccc3)[nH]c3ccccc13)C=C(c1ccccc1)O2 (stereo not given)
The zone of inhibition at 1000 µg/mL of the first is higher: 4 mm for the first, 3 mm for the second.

test system: Aspergillus oryzae; experiment: Antimicrobial activity against Aspergillus oryzae MTCC 3567 at 500 ug/ml after 72 hrs by cup plate method; assay type: functional; settings: MTCC 3567, 72 h, read-out: IZ

`Cc1ccc(C2=CC(c3c(-c4ccccc4)[nH]c4ccccc34)c3c(N)nc(=S)[nH]c3O2)cc1` (stereo not given) and `Nc1nc(=O)[nH]c2c1C(c1c(-c3ccccc3)[nH]c3ccccc13)C=C(c1ccccc1)O2` (stereo not given) are the same in zone of inhibition at 500 µg/mL: 10 mm for the first, 10 mm for the second.

test system: Aspergillus oryzae; experiment: Antimicrobial activity against Aspergillus oryzae MTCC 3567 at 750 ug/ml after 72 hrs by cup plate method; assay type: functional; settings: MTCC 3567, 72 h, read-out: IZ

Going from `Cc1ccc(C2=CC(c3c(-c4ccccc4)[nH]c4ccccc34)c3c(N)nc(=S)[nH]c3O2)cc1` (stereo not given) to `Nc1nc(=O)[nH]c2c1C(c1c(-c3ccccc3)[nH]c3ccccc13)C=C(c1ccccc1)O2` (stereo not given), the zone of inhibition at 750 µg/mL rises from 9 mm to 10 mm.

test system: Aspergillus oryzae; experiment: Antimicrobial activity against Aspergillus oryzae MTCC 3567 at 1000 ug/ml after 72 hrs by cup plate method; assay type: functional; settings: MTCC 3567, 72 h, read-out: IZ

Going from `Cc1ccc(C2=CC(c3c(-c4ccccc4)[nH]c4ccccc34)c3c(N)nc(=S)[nH]c3O2)cc1` (stereo not given) to `Nc1nc(=O)[nH]c2c1C(c1c(-c3ccccc3)[nH]c3ccccc13)C=C(c1ccccc1)O2` (stereo not given), the zone of inhibition at 1000 µg/mL rises from 9 mm to 10 mm.

test system: Aspergillus niger; experiment: Antimicrobial activity against Aspergillus niger MTCC 281 at 500 ug/ml after 72 hrs by cup plate method; assay type: functional; settings: MTCC 281, 72 h, read-out: IZ

First: Cc1ccc(C2=CC(c3c(-c4ccccc4)[nH]c4ccccc34)c3c(N)nc(=S)[nH]c3O2)cc1 (stereo not given)
Second: Nc1nc(=O)[nH]c2c1C(c1c(-c3ccccc3)[nH]c3ccccc13)C=C(c1ccccc1)O2 (stereo not given)
The zone of inhibition at 500 µg/mL of the first is higher: 6 mm for the first, 5 mm for the second.

test system: Aspergillus niger; experiment: Antimicrobial activity against Aspergillus niger MTCC 281 at 750 ug/ml after 72 hrs by cup plate method; assay type: functional; settings: MTCC 281, 72 h, read-out: IZ

`Cc1ccc(C2=CC(c3c(-c4ccccc4)[nH]c4ccccc34)c3c(N)nc(=S)[nH]c3O2)cc1` (stereo not given) and `Nc1nc(=O)[nH]c2c1C(c1c(-c3ccccc3)[nH]c3ccccc13)C=C(c1ccccc1)O2` (stereo not given) are the same in zone of inhibition at 750 µg/mL: 5 mm for the first, 5 mm for the second.

test system: Aspergillus niger; experiment: Antimicrobial activity against Aspergillus niger MTCC 281 at 1000 ug/ml after 72 hrs by cup plate method; assay type: functional; settings: MTCC 281, 72 h, read-out: IZ

Compared with `Cc1ccc(C2=CC(c3c(-c4ccccc4)[nH]c4ccccc34)c3c(N)nc(=S)[nH]c3O2)cc1` (stereo not given), `Nc1nc(=O)[nH]c2c1C(c1c(-c3ccccc3)[nH]c3ccccc13)C=C(c1ccccc1)O2` (stereo not given) is higher in zone of inhibition at 1000 µg/mL: 2 mm for the first, 3 mm for the second.

test system: Pseudomonas aeruginosa; experiment: Antimicrobial activity against Pseudomonas aeruginosa MTCC 1688 at 500 ug/ml after 24 hrs by cup plate method; assay type: functional; settings: MTCC 1688, 24 h, read-out: IZ

First: Cc1ccc(C2=CC(c3c(-c4ccccc4)[nH]c4ccccc34)c3c(N)nc(=S)[nH]c3O2)cc1 (stereo not given)
Second: Nc1nc(=O)[nH]c2c1C(c1c(-c3ccccc3)[nH]c3ccccc13)C=C(c1ccccc1)O2 (stereo not given)
The zone of inhibition at 500 µg/mL of the first is lower: 5 mm for the first, 12 mm for the second.

test system: Pseudomonas aeruginosa; experiment: Antimicrobial activity against Pseudomonas aeruginosa MTCC 1688 at 750 ug/ml after 24 hrs by cup plate method; assay type: functional; settings: MTCC 1688, 24 h, read-out: IZ

Going from `Cc1ccc(C2=CC(c3c(-c4ccccc4)[nH]c4ccccc34)c3c(N)nc(=S)[nH]c3O2)cc1` (stereo not given) to `Nc1nc(=O)[nH]c2c1C(c1c(-c3ccccc3)[nH]c3ccccc13)C=C(c1ccccc1)O2` (stereo not given), the zone of inhibition at 750 µg/mL rises from 5 mm to 12 mm.

test system: Pseudomonas aeruginosa; experiment: Antimicrobial activity against Pseudomonas aeruginosa MTCC 1688 at 1000 ug/ml after 24 hrs by cup plate method; assay type: functional; settings: MTCC 1688, 24 h, read-out: IZ

Compared with `Cc1ccc(C2=CC(c3c(-c4ccccc4)[nH]c4ccccc34)c3c(N)nc(=S)[nH]c3O2)cc1` (stereo not given), `Nc1nc(=O)[nH]c2c1C(c1c(-c3ccccc3)[nH]c3ccccc13)C=C(c1ccccc1)O2` (stereo not given) is higher in zone of inhibition at 1000 µg/mL: 3 mm for the first, 13 mm for the second.

test system: Klebsiella pneumoniae; experiment: Antimicrobial activity against Klebsiella pneumoniae NCTC 13368 at 500 ug/ml after 24 hrs by cup plate method; assay type: functional; settings: NCTC 13368, 24 h, read-out: IZ

Going from `Cc1ccc(C2=CC(c3c(-c4ccccc4)[nH]c4ccccc34)c3c(N)nc(=S)[nH]c3O2)cc1` (stereo not given) to `Nc1nc(=O)[nH]c2c1C(c1c(-c3ccccc3)[nH]c3ccccc13)C=C(c1ccccc1)O2` (stereo not given), the zone of inhibition at 500 µg/mL rises from 9 mm to 10 mm.

test system: Klebsiella pneumoniae; experiment: Antimicrobial activity against Klebsiella pneumoniae NCTC 13368 at 750 ug/ml after 24 hrs by cup plate method; assay type: functional; settings: NCTC 13368, 24 h, read-out: IZ

First: Cc1ccc(C2=CC(c3c(-c4ccccc4)[nH]c4ccccc34)c3c(N)nc(=S)[nH]c3O2)cc1 (stereo not given)
Second: Nc1nc(=O)[nH]c2c1C(c1c(-c3ccccc3)[nH]c3ccccc13)C=C(c1ccccc1)O2 (stereo not given)
The zone of inhibition at 750 µg/mL of the first is lower: 9 mm for the first, 10 mm for the second.

test system: Klebsiella pneumoniae; experiment: Antimicrobial activity against Klebsiella pneumoniae NCTC 13368 at 1000 ug/ml after 24 hrs by cup plate method; assay type: functional; settings: NCTC 13368, 24 h, read-out: IZ

Compared with `Cc1ccc(C2=CC(c3c(-c4ccccc4)[nH]c4ccccc34)c3c(N)nc(=S)[nH]c3O2)cc1` (stereo not given), `Nc1nc(=O)[nH]c2c1C(c1c(-c3ccccc3)[nH]c3ccccc13)C=C(c1ccccc1)O2` (stereo not given) is higher in zone of inhibition at 1000 µg/mL: 3 mm for the first, 10 mm for the second.

test system: Staphylococcus aureus; experiment: Antimicrobial activity against Staphylococcus aureus ATCC 29513 at 500 ug/ml after 24 hrs by cup plate method; assay type: functional; settings: ATCC 29513, 24 h, read-out: IZ

First: Cc1ccc(C2=CC(c3c(-c4ccccc4)[nH]c4ccccc34)c3c(N)nc(=S)[nH]c3O2)cc1 (stereo not given)
Second: Nc1nc(=O)[nH]c2c1C(c1c(-c3ccccc3)[nH]c3ccccc13)C=C(c1ccccc1)O2 (stereo not given)
The zone of inhibition at 500 µg/mL of the first is lower: 6 mm for the first, 10 mm for the second.

test system: Staphylococcus aureus; experiment: Antimicrobial activity against Staphylococcus aureus ATCC 29513 at 750 ug/ml after 24 hrs by cup plate method; assay type: functional; settings: ATCC 29513, 24 h, read-out: IZ

Going from `Cc1ccc(C2=CC(c3c(-c4ccccc4)[nH]c4ccccc34)c3c(N)nc(=S)[nH]c3O2)cc1` (stereo not given) to `Nc1nc(=O)[nH]c2c1C(c1c(-c3ccccc3)[nH]c3ccccc13)C=C(c1ccccc1)O2` (stereo not given), the zone of inhibition at 750 µg/mL rises from 4 mm to 10 mm.

test system: Staphylococcus aureus; experiment: Antimicrobial activity against Staphylococcus aureus ATCC 29513 at 1000 ug/ml after 24 hrs by cup plate method; assay type: functional; settings: ATCC 29513, 24 h, read-out: IZ

Compared with `Cc1ccc(C2=CC(c3c(-c4ccccc4)[nH]c4ccccc34)c3c(N)nc(=S)[nH]c3O2)cc1` (stereo not given), `Nc1nc(=O)[nH]c2c1C(c1c(-c3ccccc3)[nH]c3ccccc13)C=C(c1ccccc1)O2` (stereo not given) is higher in zone of inhibition at 1000 µg/mL: 4 mm for the first, 5 mm for the second.

test system: Escherichia coli; experiment: Antimicrobial activity against Escherichia coli MTCC 723 at 500 ug/ml after 24 hrs by cup plate method; assay type: functional; settings: MTCC 723, 24 h, read-out: IZ

Going from `Cc1ccc(C2=CC(c3c(-c4ccccc4)[nH]c4ccccc34)c3c(N)nc(=S)[nH]c3O2)cc1` (stereo not given) to `Nc1nc(=O)[nH]c2c1C(c1c(-c3ccccc3)[nH]c3ccccc13)C=C(c1ccccc1)O2` (stereo not given), the zone of inhibition at 500 µg/mL rises from 9 mm to 10 mm.

test system: Escherichia coli; experiment: Antimicrobial activity against Escherichia coli MTCC 723 at 750 ug/ml after 24 hrs by cup plate method; assay type: functional; settings: MTCC 723, 24 h, read-out: IZ

`Cc1ccc(C2=CC(c3c(-c4ccccc4)[nH]c4ccccc34)c3c(N)nc(=S)[nH]c3O2)cc1` (stereo not given) and `Nc1nc(=O)[nH]c2c1C(c1c(-c3ccccc3)[nH]c3ccccc13)C=C(c1ccccc1)O2` (stereo not given) are the same in zone of inhibition at 750 µg/mL: 8 mm for the first, 8 mm for the second.

test system: Escherichia coli; experiment: Antimicrobial activity against Escherichia coli MTCC 723 at 1000 ug/ml after 24 hrs by cup plate method; assay type: functional; settings: MTCC 723, 24 h, read-out: IZ

First: Cc1ccc(C2=CC(c3c(-c4ccccc4)[nH]c4ccccc34)c3c(N)nc(=S)[nH]c3O2)cc1 (stereo not given)
Second: Nc1nc(=O)[nH]c2c1C(c1c(-c3ccccc3)[nH]c3ccccc13)C=C(c1ccccc1)O2 (stereo not given)
The zone of inhibition at 1000 µg/mL of the first is lower: 3 mm for the first, 5 mm for the second.
